{"source": "paper PMC6501426", "about": "(Clinical Epigenetics, 2019)", "key": {"KG-1 cells": {"test_system": "KG-1 cells", "experiment": "Antiproliferative activity in KG-1 cells (Table S1)", "assay_type": "cell-based", "conditions": "Homo sapiens, read-out: % inhibition of proliferation, KG-1 cells", "protocol": "To determine the antiproliferative activity of MC3353 in KG-1 cells, the cells were seeded at day 0 in a 96-well plate and treated with test compound solutions at a dose range spanning from 3.2 × 10^−9 to 1 × 10^−5 M at days 1, 2, and 3. On day 4, cell viability was assessed using the ATPLite kit (PerkinElmer, Villebon-sur-Yvette, France).\nAfterwards, MC3353 was tested in KG-1 leukemia cells for its ability to reactivate gene expression in a stably integrated luciferase reporter construction under the control of a CMV promoter inhibited by DNA methylation (CMV-luc assay). After 5 or 24 h of incubation in the presence of drugs at the indicated concentrations, the luciferase signal was measured and normalized to the value of the non-treated cells (Table 2). Since the CMV-luc assay is highly compromised when the tested compounds induce cell death, the cytotoxicity of MC3353 against KG-1 cells at 5 and 24 h was determined in parallel. MC3353 was highly toxic for KG-1 cells after 24 h of treatment starting from a concentration of 1 μM (Additional file 1: Table S1 and indicated in stars in Table 2)."}, "Saos-2 cells": {"test_system": "Saos-2 cells", "experiment": "Saos-2 matrix mineralization, Alizarin red staining", "assay_type": "cell-based, human", "conditions": "7–21 days, differentiation medium", "protocol": "Four days after seeding, Saos-2 cells were exposed to specific osteogenic medium (IMDM supplemented with 2% FBS, 5 mM β-glycerophosphate, and 50 μg/mL ascorbic acid, Sigma-Aldrich, Milan, Italy) without (control) or with MC3353 (0.5–1 μM) or DAC (0.1–0.5 μM) and maintained in differentiating conditions for up to 21 days. The medium was renewed every 4 days, and the cells were harvested at various time points to collect total RNA and verify bone mineralization. Specific osteoblastic markers were evaluated by quantitative real-time PCR (RT-qPCR) as previously described. The primers or assays (Applied Biosystems, Foster City, CA, USA) used are as follows: GAPDH (forward: 5′-[…]-3′, reverse: 5′-[…]-3′ and probe: 5′-[…]-3′), OCN (forward: 5′-[…]-3′, reverse: 5′-[…]-3′), ALP (Hs01029144_m1), and COL1A2 (Hs01028970_m1). Amplification reactions were performed using a ViiA7™ Real-Time PCR System (Life Technologies, Carlsbad, CA, USA). To visualize bone mineralization (osteoblastic differentiation) after 7–21 days of MC3353 or DAC treatment, the plates were stained with 40 mM Alizarin red stain (ARS, Sigma-Aldrich, Milan, Italy). ARS staining was visualized with an ECLIPSE 90i microscope (Nikon, Minato, Tokyo, Japan) equipped with Plan fluor 10× NA 0.3. […]"}, "[1]": {"test_system": "PBMCs (non-proliferating, healthy donors)", "experiment": "Cell viability, trypan blue exclusion", "assay_type": "cell-based", "conditions": "Homo sapiens, PBMC, 48 h of treatment, read-out: IC50 ± SD, cell viability, PBMCs", "protocol": "(§1) Peripheral blood mononuclear cells (PBMCs) from healthy donors were isolated as previously described. Freshly isolated PBMCs were either cultured and treated at 1.10^6 cells/mL (non-proliferating PBMCs) or stimulated with phytohaemoagglutinin (PHA) and interleukin (IL)-2 (called PHA_PBMCs) to induce blastogenesis in T lymphocytes before treatments as previously described. Briefly, freshly isolated PBMCs were seeded at a concentration of 2.10^6 cells/mL in RMPI 1640 supplemented with 1% antibiotic-antimycotic (Lonza, Verviers, Belgium) and 10% human AB serum (Corning, Fisher scientific, Merelbeke, Belgium). After overnight incubation, floating lymphoid cells were collected and seeded at 1.10^6 cells/mL in RMPI 1640 supplemented with 1% antibiotic-antimycotic, 5% FBS, 10% human AB serum, 1 μg/mL PHA (Gentaur, Kampenhout, Belgium), 50 U/mL IL-2 (Roche, Prophac, Luxembourg City, Luxembourg), 1% non-essential amino acids (Invitrogen, Luxembourg), 1% HEPES (Invitrogen, Luxembourg), 1% sodium pyruvate (Invitrogen, Luxembourg), and 0.1% β-mercaptoethanol (Invitrogen, Luxembourg). After 72 h, the cells were seeded at 1.10^6 cells/mL in the same mitogenic growth medium described just above and treated with test compounds.\n(§2) Proliferation and viability of U-937, KG-1, RAJI, PC-3, MDA-MB-231, RPMI1788, PBMCs, and PHA_PBMCs were assessed by trypan blue exclusion assays at the indicated time points. Nuclear morphology changes associated with apoptosis and necrosis were evaluated by fluorescence microscopy after Hoechst and propidium iodide (PI) staining as previously described.\n(§3) IC50 values of compounds against cellular viability were determined by using nonlinear regression fitting curves with GraphPad Prism 8 or CalcuSyn software The t test used for statistical analyses was performed with GraphPad Prism 8. All the tests were one-tailed, and a p value < 0.05 was considered statistically significant."}, "[2]": {"test_system": "PHA_PBMCs (phytohemagglutinin-stimulated PBMCs)", "experiment": "Cell viability, trypan blue exclusion", "assay_type": "cell-based", "conditions": "Homo sapiens, PBMC; 48 h of treatment; proliferating, PHA-stimulated; read-out: IC50 ± SD, cell viability, PHA_PBMCs", "protocol": "as §1, §2, §3"}, "Abl kinase (h)": {"target": "T1, Abl kinase (h) (Homo sapiens, UniProt P00519)", "T1 construct": "purchased Eurofins Cerep", "T1 sequence (P00519 whole entry)": "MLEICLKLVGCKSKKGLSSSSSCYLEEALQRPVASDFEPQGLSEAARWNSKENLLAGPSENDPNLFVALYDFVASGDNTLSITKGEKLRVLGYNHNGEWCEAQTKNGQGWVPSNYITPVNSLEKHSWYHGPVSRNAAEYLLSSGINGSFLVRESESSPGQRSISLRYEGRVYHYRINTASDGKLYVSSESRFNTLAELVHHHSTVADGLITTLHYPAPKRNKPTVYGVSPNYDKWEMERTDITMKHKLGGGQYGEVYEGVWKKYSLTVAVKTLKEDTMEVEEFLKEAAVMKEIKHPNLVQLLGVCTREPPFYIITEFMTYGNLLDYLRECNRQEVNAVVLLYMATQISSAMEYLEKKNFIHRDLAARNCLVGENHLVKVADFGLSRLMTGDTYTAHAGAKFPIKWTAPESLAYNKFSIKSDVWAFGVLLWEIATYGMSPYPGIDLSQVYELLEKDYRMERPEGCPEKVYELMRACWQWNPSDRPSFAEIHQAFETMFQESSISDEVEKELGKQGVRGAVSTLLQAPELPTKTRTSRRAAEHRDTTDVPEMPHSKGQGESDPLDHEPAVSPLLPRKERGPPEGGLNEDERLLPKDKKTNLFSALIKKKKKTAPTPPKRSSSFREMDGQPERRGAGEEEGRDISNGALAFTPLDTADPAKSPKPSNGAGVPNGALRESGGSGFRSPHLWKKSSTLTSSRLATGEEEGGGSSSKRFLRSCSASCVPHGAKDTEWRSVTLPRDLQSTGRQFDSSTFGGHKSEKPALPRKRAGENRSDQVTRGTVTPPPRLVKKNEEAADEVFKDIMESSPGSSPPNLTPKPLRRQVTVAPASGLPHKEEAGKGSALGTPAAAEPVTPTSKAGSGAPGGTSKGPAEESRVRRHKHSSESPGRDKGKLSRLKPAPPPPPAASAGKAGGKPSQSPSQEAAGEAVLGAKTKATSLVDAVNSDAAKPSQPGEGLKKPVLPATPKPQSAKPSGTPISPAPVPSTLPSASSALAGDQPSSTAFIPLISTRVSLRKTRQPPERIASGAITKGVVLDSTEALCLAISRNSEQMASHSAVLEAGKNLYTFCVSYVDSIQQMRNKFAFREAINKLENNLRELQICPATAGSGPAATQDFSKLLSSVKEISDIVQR", "experiment": "Kinase panel (ExpresS Diversity Kinase Profile, Cerep)", "assay_type": "biochemical", "conditions": "read-out: % inhibition at 10 µM by MC3353, Abl kinase (h), ATP 10 μM", "protocol": "The test compound, reference compound or water (control) were mixed with the enzyme (for the exact amount see table below) in the appropriate buffer. Thereafter, the reaction was initiated by adding the required amount of the appropriate substrate and of ATP, and the mixture is incubated at room temperature (variable reaction time, see table below). For control basal measurements, the enzyme was omitted from the reaction mixture. Following incubation, the reaction was stopped by adding 13 mM EDTA. After 5 min, the proper antibody labelled with europium chelate was added. After 60 more min, the fluorescence transfer was measured at λex=337 nm, λem=620 nm and λem=665 nm using a microplate reader (Envision, Perkin Elmer). The enzyme activity was determined by dividing the signal measured at 665 nm by that measured at 620 nm (ratio). The results are expressed as a percent inhibition of the control enzyme activity."}}, "note": "Like-named read-outs stand apart in the source and are kept apart here."}
{"smiles": "O=C(Nc1ccc(NC(=O)c2ccc(Nc3ccnc4ccccc34)cc2)cc1)OCc1ccccc1", "note": "[MC3353, Benzyl (4-(4-(quinolin-4-ylamino)benzamido)phenyl)carbamate]", "values": [{"measurement": "inhibition at 0.1 µM", "setting": "KG-1 cells; 5h", "result": 5.5, "unit": "%"}, {"measurement": "inhibition at 0.1 µM", "setting": "KG-1 cells; 24h", "result": 2.9, "unit": "%"}, {"measurement": "inhibition at 1 µM", "setting": "KG-1 cells; 5h", "result": 17.7, "unit": "%"}, {"measurement": "inhibition at 1 µM", "setting": "KG-1 cells; 24h", "result": 98.7, "unit": "%"}, {"measurement": "inhibition at 5 µM", "setting": "KG-1 cells; 5h", "result": 81.2, "unit": "%"}, {"measurement": "inhibition at 5 µM", "setting": "KG-1 cells; 24h", "result": 100, "unit": "%"}, {"measurement": "inhibition at 10 µM", "setting": "KG-1 cells; 5h", "result": 96.8, "unit": "%"}, {"measurement": "inhibition at 10 µM", "setting": "KG-1 cells; 24h", "result": 100, "unit": "%"}, {"measurement": "mineralized matrix production (ARS staining), Saos-2", "setting": "Saos-2 cells", "result": "augment mineralized matrix production"}, {"measurement": "IC50", "setting": "[1]", "result": "8.9 ± 4.2", "unit": "µM"}, {"measurement": "IC50", "setting": "[2]", "result": "4.6 ± 0.5", "unit": "µM"}, {"measurement": "inhibition at 10 µM", "setting": "Abl kinase (h)", "result": 0, "unit": "%"}]}
